Results reported in patent publication US11203588B2, “Anti-cancer and splice modulating compounds and methods” (The Regents of the University of California, priority 2016, dated 2021).
In brackets after ≈: the same amount, converted by molar mass.

What was measured:
[1] = test system: intron retention in DNAJB1, ARF4, PRPF4, RIOK3, SF3A1, and U2AF2 in primary CLL-B cells; assay: RT-PCR / qRT-PCR analysis of intron retention (IR); assay type: cell-based; conditions: six genes, 4 h treatment, RNU6A and GAPDH as controls
Experimental: CLL-B (5×10^6 cells/well) were treated with a given dose of compound from a DMSO stock solution over 4 h. RNA isolation and cDNA preparation, PCR reaction was performed in 20 μL of reaction volume as described previously.^S3 PCR conditions give by incubation at 94° C. for 3 min; 35 cycles of 94° C. for 30 s, 55-60° C. (annealing temperature: 55° C. for GAPDH, 53.6° C. for RNU6A, 58° C. for DNAJB1, 54° C. for SF3A1, 55° C. for PRPF4, 55° C. for ARF4, and 55° C. for U2AF2) for 30 s, and 72° C. for 1 min; followed by 72° C. for 5 min. PCR products were separated on a 2% agarose gel and stained with ethidium bromide.
cDNA was prepared using identical methods as used for RT-PCR analysis. The amount of unspliced RNA for different genes was determined using Power SYBR Green PCR master mix (Applied Biosystems) by qRT-PCR using specific primers designed for detection of the intron of each gene (Table 2). The qPCR was performed using 5 pM of each primer on 20 ng of the obtained cDNA. PCR conditions were as follows: one cycle of 50° C. for 2 min (UDG Incubation), one cycle of 95° C. for 10 min (UDG Inactivation), followed by 95° C. for 15 sec; 60° C. for 30 s for 40 cycles and adding a step for dissociation using a 7900 HT Fast Real Time PCR System (Applied Biosystems). Unspliced RNA levels were calculated using 2-ΔΔCT method.^S4 GAPDH was used as a control for normalization.

[2] = test system: alternate splicing of MCL1 and BCL-X in CLL-B cells; assay: RT-PCR analysis of alternate splicing (AS); assay type: cell-based, human (CLL patients); conditions: for alternate splicing (AS) events: H2A as unspliced loading control
primary CLL-B cells = assay: In vitro cytotoxicity, specific induced apoptosis (% SIA), flow cytometry; assay type: cell-based, human (CLL patients); conditions: for IC50: 48 h
Description: Peripheral blood mononuclear cells (PBMC) from CLL patients were obtained from the CLL Research Consortium (CRC) tissue bank. This protocol was approved by the institutional review board (IRB) of the University of California, San Diego. Blood samples were taken from two CLL patients after written informed consent for blood sample collection and confirmation of diagnosis for CLL diseases, The PBMCs were separated from heparinized venous blood by density gradient centrifugation using Ficoll-Hypaque media (GE Healthcare). The samples with >95% positively for leukemic B cells was confirmed by staining for CD5 and CD19 followed by assessment using flow cytometry. CLL-B cells were maintained in RPMI 1640 medium supplemented with 10% FBS, 2 mM L-glutamine, and 100 U/mL of penicillin and 100 μg/mL of streptomycin at 37° C. in an atmosphere containing 5% CO2.
The CLL-B cells (3×10^5 cells) were treated for 48 h with 10, 100, 300, and 1000 nM of 1a, 1b, 2 or 19 at 37° C. in an atmosphere containing 5% CO2. Fludarabine (F-ara-A) dosed at 10 μM was used as a control. The cells were centrifuged and labeled with CD19/CD5/DiOC6 and subjected to flow cytometry. The data was analyzed using FlowJo software. […] The dose-response curves were plotted to determine IC50 values using the GraphPad Prism version 6.0c software.

[3] = Solubility by capillary NMR with solvent 13C-satellites (QSCS); assay type: physicochemical
Description: (§1) Early studies indicate that 2 was more soluble and stable in aqueous buffers than FD-895 (1a).

[4] = Stability in aqueous buffer by NMR monitoring; assay type: physicochemical; conditions: after 744 h (1 month), D2O/DMSO-d6 (10:1) at 37° C.
Description: as §1

[5] = primary CLL-B cells from two CLL patients

Molecule	splice modulation via intron retention (IR) [1]	alternate splicing (AS) events [2]	IC50 (primary CLL-B cells; Homo sapiens, primary CLL-B cells, both sets of cells)	MCL1 long (anti-apoptotic) and short (pro-apoptotic) isoform expression [2]	IC50 (primary CLL-B cells; [5])	solubility (soluble up to) ([3]; D2O/DMSO-d6 (10:1) at 23° C.)	decomposition (stability) [4]	IC50 (primary CLL-B cells; Homo sapiens, primary CLL-B cells from two CLL patients)	loss of activity when compared to FD-895 (1a) (primary CLL-B cells; primary CLL-B cells, IC50 based)	solubility ([3]; 23 °C, aqueous with cosolvent or surfactant or cyclodextrin)
CC[C@H](OC)[C@@H](C)/C=C/[C@H](O)[C@@H](C)/C=C/C=C(\C)[C@H]1O[C@H](OC)[C@H](OC)[C@@H](OC)[C@@H]1OC [Alkene 19, (2E,4E,6S,7S,8E,10S,11S)-11-methoxy-6,10-dimethyl-2-((2R,3R,4S,5R,6S)-3,4,5,6-tetramethoxytetrahydro-2H-pyran-2-yl)trideca-2,4,8-trien-7-ol]	inactive for all six genes	did not induce AS	> 50000 nM	–	–	–	–	–	–	–
CCC(OC)C(C)C1OC1C(O)C(C)/C=C/C=C(\C)C1OC(=O)CC(O)CCC(C)(O)C(OC(C)=O)/C=C/C1C (stereo not drawn) [Compound 1a, FD-895, reference compound]	–	–	–	decrease in the long (anti-apoptotic) form and increased the expression of short (pro-apoptotic) form of MCL1	54.1 ± 7.5 nM	15 ± 5 mM (≈ 8.5 mg/mL)	–	–	–	–
CC[C@H](OC)[C@@H](C)[C@H]1O[C@@H]1[C@H](O)[C@@H](C)/C=C/C=C(\C)[C@H]1O[C@H](OC)[C@H](OC)[C@@H](OC)[C@@H]1OC [Compound 2, (1R,2S,3E,5E)-1-((2R,3R)-3-((2R,3S)-3-methoxypentan-2-yl)oxiran-2-yl)-2-methyl-6-((2R,3R,4S,5R,6S)-3,4,5,6-tetramethoxytetrahydro-2H-pyran-2-yl)hepta-3,5-dien-1-ol]	complementary splice modulation in all six genes	induced alternate splicing (AS) events	–	decrease in the long (anti-apoptotic) form and increased the expression of short (pro-apoptotic) form of MCL1	–	–	no signs of decomposition	153 ± 11.8 nM	~3 fold	95 ± 5 mM (≈ 44.9 mg/mL)
pladienolide B [Compound 1b, reference compound]	–	–	–	decrease in the long (anti-apoptotic) form and increased the expression of short (pro-apoptotic) form of MCL1	84.4 ± 1.2 nM	–	–	–	–	–
